Molecular target: human PDE1B enzyme (Homo sapiens (Human), UniProt Q01064)
Test: IMAP TR-FRET PDE1B enzymatic assay
Type: biochemical
Settings: negative log of half-maximal molar inhibitory concentration, 200 nM FAM-cAMP, values given as bins; for IC50: read-out: PDE1b (pIC50) (converted)
Outline: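 Full-length GST-tagged human PDE1B (250 pg/well) in IMAP BSA buffer with 10 U/ml calmodulin and 2.5 mM CaCl2; compound pre-incubated 5 min at room temperature, then 200 nM (final) FAM-cAMP for 30 min. IMAP binding reagent/Tb added, 1 h; TR-FRET 520/490 ratio read. IC50 from sigmoidal dose-response fit.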

| SMILES | PDE1b (pIC50) | IC50 [µM] |
| --- | --- | --- |
| Cc1oc2ncnc(NC3(C)CC3)c2c1C(=O)N1CC=C(c2cnc(F)s2)CC1 [Example 783, 5-[4-(2-Fluoro-1,3-thiazol-5-yl)-1,2,3,6-tetrahydropyridine-1-carbonyl]-6-methyl-N-(1-methylcyclopropyl)furo[2,3-d]pyrimidin-4-amine] | >8 | – |
| COc1cnc(C2=CCN(C(=O)c3c(C)oc4ncnc(NC5(C)CC5)c34)CC2)cn1 [Example 784, 5-[4-(5-Methoxypyrazin-2-yl)-1,2,3,6-tetrahydropyridine-1-carbonyl]-6-methyl-N-(1-methylcyclopropyl)furo[2,3-d]pyrimidin-4-amine] | >8 | – |
| COc1ccc(C2=CCN(C(=O)c3c(C)oc4ncnc(NC5(C)CC5)c34)CC2)nc1 [Example 785, 5-[4-(5-Methoxypyridin-2-yl)-1,2,3,6-tetrahydropyridine-1-carbonyl]-6-methyl-N-(1-methylcyclopropyl)furo[2,3-d]pyrimidin-4-amine] | >8 | – |
| Cc1oc2ncnc(NC3(C)CC3)c2c1C(=O)N1CCc2c(ncnc2N2CC[C@H](F)C2)C1 [Example 786, 5-{4-[(3S)-3-Fluoropyrrolidin-1-yl]-5H,6H,7H,8H-pyrido[3,4-d]pyrimidine-7-carbonyl}-6-methyl-N-(1-methylcyclopropyl)furo[2,3-d]pyrimidin-4-amine] | – | 0.01 to 0.1 |
| Cc1oc2ncnc(NC3(C)CC3)c2c1C(=O)N1CCc2c(ncnc2N2CCOCC2)C1 [Example 787, 6-Methyl-N-(1-methylcyclopropyl)-5-[4-(morpholin-4-yl)-5H,6H,7H,8H-pyrido[3,4-d]pyrimidine-7-carbonyl]furo[2,3-d]pyrimidin-4-amine] | – | 0.01 to 0.1 |
| Cc1oc2ncnc(NC3(C)CC3)c2c1C(=O)N1CCc2c(ncnc2N2CC(F)C2)C1 [Example 788, 5-[4-(3-Fluoroazetidin-1-yl)-5H,6H,7H,8H-pyrido[3,4-d]pyrimidine-7-carbonyl]-6-methyl-N-(1-methylcyclopropyl)furo[2,3-d]pyrimidin-4-amine] | – | 0.01 to 0.1 |
| Cc1oc2ncnc(NC3(C)CC3)c2c1C(=O)N1CCc2c(nc(Cl)nc2NC(C)C)C1 [Example 789, 5-{2-Chloro-4-[(propan-2-yl)amino]-5H,6H,7H,8H-pyrido[3,4-d]pyrimidine-7-carbonyl}-6-methyl-N-(1-methylcyclopropyl)furo[2,3-d]pyrimidin-4-amine] | >8 | – |
| Cc1oc2ncnc(NC3(C)CC3)c2c1C(=O)N1CCc2c(ncnc2N(C)C2CC2)C1 [Example 790, 5-{4-[Cyclopropyl(methyl)amino]-5H,6H,7H,8H-pyrido[3,4-d]pyrimidine-7-carbonyl}-6-methyl-N-(1-methylcyclopropyl)furo[2,3-d]pyrimidin-4-amine] | – | 0.01 to 0.1 |
| Cc1oc2ncnc(NC3(C)CC3)c2c1C(=O)N1CCc2c(ncnc2N(C)C)C1 [Example 791, 5-[4-(Dimethylamino)-5H,6H,7H,8H-pyrido[3,4-d]pyrimidine-7-carbonyl]-6-methyl-N-(1-methylcyclopropyl)furo[2,3-d]pyrimidin-4-amine] | – | 0.01 to 0.1 |
| CNc1ncnc2c1CCN(C(=O)c1c(C)oc3ncnc(NC4(C)CC4)c13)C2 [Example 792, 6-Methyl-5-[4-(methylamino)-5H,6H,7H,8H-pyrido[3,4-d]pyrimidine-7-carbonyl]-N-(1-methylcyclopropyl)furo[2,3-d]pyrimidin-4-amine] | – | 0.01 to 0.1 |
| Cc1oc2ncnc(NC3(C)CC3)c2c1C(=O)N1CCc2c(ncnc2N(C)C2CCOCC2)C1 [Example 793, 6-Methyl-5-{4-[methyl(oxan-4-yl)amino]-5H,6H,7H,8H-pyrido[3,4-d]pyrimidine-7-carbonyl}-N-(1-methylcyclopropyl)furo[2,3-d]pyrimidin-4-amine] | – | 0.01 to 0.1 |
| Cc1oc2ncnc(NC3(C)CC3)c2c1C(=O)N1CCc2c(ncnc2NC2CCOCC2)C1 [Example 794, 6-Methyl-N-(1-methylcyclopropyl)-5-f{4-[(oxan-4-yl)amino]-5H,6H,7H,8H-pyrido[3,4-d]pyrimidine-7-carbonyl}furo[2,3-d]pyrimidin-4-amine] | – | 0.01 to 0.1 |
| COCC1(Nc2ncnc3c2CCN(C(=O)c2c(C)oc4ncnc(NC5(C)CC5)c24)C3)CC1 [Example 795, 5-(4-{[1-(Methoxymethyl)cyclopropyl]amino}-5H,6H,7H,8H-pyrido[3,4-d]pyrimidine-7-carbonyl)-6-methyl-N-(1-methylcyclopropyl)furo[2,3-d]pyrimidin-4-amine] | – | 0.01 to 0.1 |
| Cc1oc2ncnc(NC3(C)CC3)c2c1C(=O)N1CCc2c(ncnc2NC2(C)CC2)C1 [Example 796, 6-Methyl-N-(1-methylcyclopropyl)-5-{4-[(1-methylcyclopropyl)amino]-5H,6H,7H,8H-pyrido[3,4-d]pyrimidine-7-carbonyl}furo[2,3-d]pyrimidin-4-amine] | – | 0.01 to 0.1 |
| Cc1oc2ncnc(NC3(C)CC3)c2c1C(=O)N1CCC(c2ccc(OCCF)cc2)C1 (stereo not drawn) [Example 797, 5-{3-[4-(2-Fluoroethoxy)phenyl]pyrrolidine-1-carbonyl}-6-methyl-N-(1-methylcyclopropyl)furo[2,3-d]pyrimidin-4-amine] | – | 0.01 to 0.1 |
| Cc1cc(F)nc(C2CCN(C(=O)c3c(C)oc4ncnc(NC5(C)CC5)c34)C2)c1 (stereo not drawn) [Example 798, 5-[3-(6-Fluoro-4-methylpyridin-2-yl)pyrrolidine-1-carbonyl]-6-methyl-N-(1-methylcyclopropyl)furo[2,3-d]pyrimidin-4-amine] | >8 | – |
| Cc1nc(C2CCN(C(=O)c3c(C)oc4ncnc(NC5(C)CC5)c34)C2)ccc1F (stereo not drawn) [Example 799, 5-[3-(5-Fluoro-6-methylpyridin-2-yl)pyrrolidine-1-carbonyl]-6-methyl-N-(1-methylcyclopropyl)furo[2,3-d]pyrimidin-4-amine] | >8 | – |
| Cc1nc(C2CCN(C(=O)c3c(C)oc4ncnc(NC5(C)CC5)c34)C2)ncc1F (stereo not drawn) [Example 800, 5-[3-(5-Fluoro-4-methylpyrimidin-2-yl)pyrrolidine-1-carbonyl]-6-methyl-N-(1-methylcyclopropyl)furo[2,3-d]pyrimidin-4-amine] | >8 | – |
| Cc1oc2ncnc(NC3(C)CC3)c2c1C(=O)N1CCC(c2cccc(C(F)(F)F)n2)C1 (stereo not drawn) [Example 801, 6-Methyl-N-(1-methylcyclopropyl)-5-f{3-[6-(trifluoromethyl)pyridin-2-yl]pyrrolidine-1-carbonyl}furo[2,3-d]pyrimidin-4-amine] | >8 | – |
| Cc1oc2ncnc(NC3(C)CC3)c2c1C(=O)N1CCC(c2cc(C(F)(F)F)ccn2)C1 (stereo not drawn) [Example 802, 6-Methyl-N-(1-methylcyclopropyl)-5-f{3-[4-(trifluoromethyl)pyridin-2-yl]pyrrolidine-1-carbonyl}furo[2,3-d]pyrimidin-4-amine] | >8 | – |
| Cc1oc2ncnc(NC3(C)CC3)c2c1C(=O)N1CCc2c(ncnc2C2CCOCC2)C1 [Example 803, 6-Methyl-N-(1-methylcyclopropyl)-5-[4-(oxan-4-yl)-5H,6H,7H,8H-pyrido[3,4-d]pyrimidine-7-carbonyl]furo[2,3-d]pyrimidin-4-amine] | – | 0.01 to 0.1 |
| C=C(C)c1ncnc2c1CCN(C(=O)c1c(C)oc3ncnc(NC4(C)CC4)c13)C2 [Example 804, 6-Methyl-N-(1-methylcyclopropyl)-5-[4-(prop-1-en-2-yl)-5H,6H,7H,8H-pyrido[3,4-d]pyrimidine-7-carbonyl]furo[2,3-d]pyrimidin-4-amine] | – | 0.01 to 0.1 |
| Cc1oc2ncnc(NC3(C)CC3)c2c1C(=O)N1CCc2c(ncnc2C2CC2)C1 [Example 805, 5-{4-Cyclopropyl-5H,6H,7H,8H-pyrido[3,4-d]pyrimidine-7-carbonyl}-6-methyl-N-(1-methylcyclopropyl)furo[2,3-d]pyrimidin-4-amine] | – | 0.01 to 0.1 |
| CCCOc1ncnc2c1CCN(C(=O)c1c(C)oc3ncnc(NC4(C)CC4)c13)C2 [Example 806, 6-Methyl-N-(1-methylcyclopropyl)-5-f{4-propoxy-5H,6H,7H,8H-pyrido[3,4-d]pyrimidine-7-carbonyl}furo[2,3-d]pyrimidin-4-amine] | – | 0.01 to 0.1 |
| Cc1oc2ncnc(NC3(C)CC3)c2c1C(=O)N1CCc2c(ncnc2OCC(C)C)C1 [Example 807, 6-Methyl-N-(1-methylcyclopropyl)-5-[4-(2-methylpropoxy)-5H,6H,7H,8H-pyrido[3,4-d]pyrimidine-7-carbonyl]furo[2,3-d]pyrimidin-4-amine] | >8 | – |
| Cc1oc2ncnc(NC3(C)CC3)c2c1C(=O)N1CCc2c(ncnc2OCC2CC2)C1 [Example 808, 5-[4-(Cyclopropylmethoxy)-5H,6H,7H,8H-pyrido[3,4-d]pyrimidine-7-carbonyl]-6-methyl-N-(1-methylcyclopropyl)furo[2,3-d]pyrimidin-4-amine] | >8 | – |
| COCCOc1ncnc2c1CCN(C(=O)c1c(C)oc3ncnc(NC4(C)CC4)c13)C2 [Example 809, 5-[4-(2-Methoxyethoxy)-5H,6H,7H,8H-pyrido[3,4-d]pyrimidine-7-carbonyl]-6-methyl-N-(1-methylcyclopropyl)furo[2,3-d]pyrimidin-4-amine] | – | 0.01 to 0.1 |
| Cc1oc2ncnc(NC3(C)CC3)c2c1C(=O)N1CCc2c(ncnc2OC2CCC2)C1 [Example 810, 5-{4-Cyclobutoxy-5H,6H,7H,8H-pyrido[3,4-d]pyrimidine-7-carbonyl}-6-methyl-N-(1-methylcyclopropyl)furo[2,3-d]pyrimidin-4-amine] | >8 | – |
| Cc1oc2ncnc(NC3(C)CC3)c2c1C(=O)N1CCc2c(ncnc2OC2CC2)C1 [Example 811, 5-{4-Cyclopropoxy-5H,6H,7H,8H-pyrido[3,4-d]pyrimidine-7-carbonyl}-6-methyl-N-(1-methylcyclopropyl)furo[2,3-d]pyrimidin-4-amine] | – | 0.01 to 0.1 |
| COc1nc(C2CC2)nc2c1CCN(C(=O)c1c(C)oc3ncnc(NC4(C)CC4)c13)C2 [Example 812, 5-{2-Cyclopropyl-4-methoxy-5H,6H,7H,8H-pyrido[3,4-d]pyrimidine-7-carbonyl}-6-methyl-N-(1-methylcyclopropyl)furo[2,3-d]pyrimidin-4-amine] | >8 | – |

From US20250145633A1, “SUBSTITUTED FURANOPYRIMIDINE COMPOUNDS AS PDE1 INHIBITORS” (Dart NeuroScience, LLC, priority 2017, published 2025)
